Tests used:
Strep. sanguis (CR2b) = assay: bacterial regrowth assay (antibacterial efficacy of Triclosan delivered in targeted liposomes); format: cell-based
Protocol: Liposomes were prepared by the reverse phase evaporation procedure referred to above incorporating Triclosan in the lipid mixture. Some of the liposome samples were prepared with concanavalin A (ConA) conjugated to their surface. Details are as follows: (a) Derivatisation of ConA with SATA 2.5µl of a stock solution containing 9.08mg N-succinimidyl-S-acetyl thioacetate (SATA) in 50µl dimethylformamide was added to ConA solution (10mg in 2.5ml phosphate (50mM) - EDTA (1mM) buffer, pH7.5) at room temperature. After reaction (15min) the derivatised protein (s-ConA) was separated from unreacted SATA by gel filtration on a Sephadex G-50 column (15 x 2cm). The s-ConA was activated by deacetylation using, for each 2ml of protein solution, 200µl of 0.1M hydroxylamine solution, made up in 2.5mM EDTA with sufficient solid Na₂HPO₄ added to bring the pH to 7.5. (b) Preparatlon of DPPE-MBS 40mg L-α-dipalmitoylphosphatidylethanolamine (DPPE) was dissolved in a mixture of 16ml dry chloroform, 2ml dry methanol and 20mg dry triethylamine. 20mg maleimidobenzoyl-N-hydroxysuccinimide ester (MBS) was added and the reaction mixture was stirred under nitrogen at room temperature for 24h, after which the organic phase was washed three times with phosphate buffered saline (PBS, pH7.3) to remove unreacted MBS. The DPPE-MBS derivative was recovered from the organic phase by rotary evaporation and was stored in a chloroform/methanol mixture (9:1 v/v) at 4°C. (c) Preparation of liposomes 27mg dipalmitoylphosphatidylcholine (DPPC), 3mg phosphatidylinositol (PI, from wheat germ) and 3mg DPPE-MBS were dissolved in 9ml chloroform/methanol mixture (4:1 v/v). […] The fractions collected were analysed for phospholipid and Triclosan by scintillation counting. Particle sizes of the liposomes were determined by photon correlation spectroscopy, following the method described in Hutchinson et al., Biochim. […] (e) Assessment of efficacy The antibacterial efficacy of Triclosan delivered in targeted liposomes was assessed using a bacterial regrowth assay. […]

[1] = solubility of Triclosan in PBS (remark in the method); format: physicochemical; details: PBS without ethanol
Protocol: Liposomes were prepared by the reverse phase evaporation procedure referred to above incorporating Triclosan in the lipid mixture. Some of the liposome samples were prepared with concanavalin A (ConA) conjugated to their surface. Details are as follows: (a) Derivatisation of ConA with SATA 2.5µl of a stock solution containing 9.08mg N-succinimidyl-S-acetyl thioacetate (SATA) in 50µl dimethylformamide was added to ConA solution (10mg in 2.5ml phosphate (50mM) - EDTA (1mM) buffer, pH7.5) at room temperature. After reaction (15min) the derivatised protein (s-ConA) was separated from unreacted SATA by gel filtration on a Sephadex G-50 column (15 x 2cm). The s-ConA was activated by deacetylation using, for each 2ml of protein solution, 200µl of 0.1M hydroxylamine solution, made up in 2.5mM EDTA with sufficient solid Na₂HPO₄ added to bring the pH to 7.5. […] The fractions collected were analysed for phospholipid and Triclosan by scintillation counting. Particle sizes of the liposomes were determined by photon correlation spectroscopy, following the method described in Hutchinson et al., Biochim. […] (e) Assessment of efficacy The antibacterial efficacy of Triclosan delivered in targeted liposomes was assessed using a bacterial regrowth assay. […]

Oc1cc(Cl)ccc1Oc1ccc(Cl)cc1Cl [Triclosan in solution, 2,4,4'-trichloro-2'-hydroxy diphenyl ether]
% inhibition of growth incubated with saliva (Strep. sanguis (CR2b); 1min exposure, PBS plus human saliva (1:1), 5µg Triclosan in 100µl PBS with 10% ethanol): 3%
% inhibition of growth without saliva (Strep. sanguis (CR2b); 1min exposure, PBS, no saliva, 5µg Triclosan in 100µl PBS with 10% ethanol): 8%
% inhibition of growth (Strep. sanguis (CR2b); relative to PBS alone, 2h exposure at 37°C, regrowth 18h, optical density at 630nm, PBS containing 10% ethanol, total Triclosan 10µg (free, liposomes with ConA) or 20µg (liposomes without ConA) in 100µl): 75%
solubility in PBS alone [1]: virtually insoluble

From patent EP0481701B1, “Treatment composition” (priority 1990, dated 1992)
